Residues, ends and D or L forms follow the SMILES beside them.
How the values were obtained:
[1] = test system: Chinese Hamster Ovary (CHO) cells (Subclone DG44); experiment: Batch cultivation of CHO DG44 cells in glutamine-free PowerCHO-2 CD medium supplemented with glutamine sources: growth and productivity; format: cell-based; conditions: for Relative cell-specific productivity: relative titer/IVCD relative to 100% free glutamine; for Relative time-related productivity: relative titer/cultivation time relative to free glutamine; for Relative titer / Cultivation time until 80% viability / Integrated viable cell density (IVCD): total glutamine 8 mM; for Relative titer: relative to titer of 100% free glutamine; for Cultivation time until 80% viability / Integrated viable cell density (IVCD): third passage; for Integrated viable cell density (IVCD): until viability below 80%; for Performance in batch cultivation, in words (titer, productivities): comparison of the supplements of Tables 1 and 2
Experimental: Acetyl-A-Q was mixed with free glutamine or A-Q in molar ratios between 0 and 100%. The mixtures were added to a glutamine-free medium (PowerCHO-2 CD, Lonza AG, Visp, Switzerland) to obtain a total glutamine concentration of 8 mM in the final medium. Growth and productivity were measured using Chinese Hamster Ovary (CHO) cells (Subclone DG44; Life Technologies Cooperation, Carlsbad, USA). Cultivation was continued up to the point where the viability of the culture dropped below 80%. Data from the third passage was used. All titer-related information is given relative to the titer of 100% free glutamine. Accordingly, the relative cell-specific productivity was obtained by first dividing the relative titer by the integrated viable cell density (IVCD), then dividing this number by the titer/IVCD ratio for 100% free glutamine. The relative time-specific productivity was obtained by dividing the relative titer by the cultivation duration until the sampling, then dividing this number by the titer/cultivation time ratio for free glutamine. In a second set of experiments within the same experimental campaign, acetyl-A-Q was mixed with A-Q and tested under the same conditions as described above. The 100% points for acetyl-A-Q as well as the free glutamine reference are identical to the first example.

[2] = test system: Chinese Hamster Ovary (CHO) cells (Subclone DG44); experiment: Fed-batch cultivation of CHO DG44 cells with glutamine sources in basal medium and feed supplement: growth and productivity; format: cell-based
Experimental: Free glutamine, A-Q or Acetyl-A-Q were added to a glutamine-free medium (PowerCHO-2 CD, Lonza AG, Visp, Switzerland) to obtain a total glutamine concentration of 8 mM in the final medium.
In addition, these substances as well as a 75% mixture of acetyl-A-Q and A-Q were added to a glutamine-free formulation of a commercial feed supplement (CHOMACS Feed Supplement, Miltenyi Biotech, Germany) to yield a glutamine concentration of 5.5 g/L. Growth and productivity were measured using Chinese Hamster Ovary (CHO) cells (Subclone DG44; Life Technologies Cooperation, Carlsbad, USA).The results are summarized in Table 3. All titer-related information is given relative to the titer obtained by adding free glutamine to basal medium and feed. Accordingly, the relative cell-specific productivity was obtained by first dividing the relative titer by the integrated viable cell density (IVCD), then dividing this number by the titer/IVCD ratio for 100% free glutamine. The relative time-specific productivity was obtained by dividing the relative titer by the cultivation duration until the sampling, then dividing this number by the titer/cultivation time ratio for free glutamine.

[3] = basal medium source/feed source, 8 mM glutamine in medium, 5.5 g/L in feed

| Structure (SMILES) | Relative cell-specific productivity ([1]; acetyl-A-Q mixed with A-Q) | Relative time-related productivity ([1]; acetyl-A-Q mixed with A-Q) | Relative titer ([1]; acetyl-A-Q mixed with A-Q) | Cultivation time until 80% viability ([1]; acetyl-A-Q mixed with A-Q) | Integrated viable cell density (IVCD) ([1]; acetyl-A-Q mixed with A-Q) | Relative cell-specific productivity ([1]; acetyl-A-Q mixed with free Q) | Relative time-related productivity ([1]; acetyl-A-Q mixed with free Q) | Relative titer ([1]; acetyl-A-Q mixed with free Q) | Cultivation time until 80% viability ([1]; acetyl-A-Q mixed with free Q) | Integrated viable cell density (IVCD) ([1]; acetyl-A-Q mixed with free Q) | Performance in batch cultivation, in words (titer, productivities) [1] | Performance in fed-batch cultivation, in words (productivity, cell density, titer) ([2]; comparison of the combinations of Table 3) | Cultivation time until 80% viability [2, 3] | Integrated viable cell density (IVCD) [2, 3] | Relative cell-specific productivity ([2]; relative titer/IVCD relative to 100% free glutamine) | Relative time-related productivity ([2]; relative titer/cultivation time relative to free glutamine) | Relative titer ([2]; relative to titer with free glutamine in basal medium and feed) |
| --- | --- | --- | --- | --- | --- | --- | --- | --- | --- | --- | --- | --- | --- | --- | --- | --- | --- |
| NC(=O)CC[C@H](N)C(=O)O [100% Q, L-glutamine] | 100% | 100% | 1.00 | 12.9 | 32.0 | 100% | 100% | 1.00 | 12.9 | 32.0 | – | – | – | – | – | – | – |
| C[C@H](N)C(=O)N[C@@H](CCC(N)=O)C(=O)O [100% AQ, alanyl-glutamine] (H-Ala-Gln-OH) | 75% | 102% | 1.10 | 13.9 | 47.1 | – | – | – | – | – | performs at a lower level in all relevant categories | – | – | – | – | – | – |
| CC(=O)N[C@@H](C)C(=O)N[C@@H](CCC(N)=O)C(=O)O [100% acetyl-A-Q, acetyl-A-Q] (Ac-Ala-Gln-OH) | 434% | 99% | 1.37 | 17.9 | 10.1 | 434% | 99% | 1.37 | 17.9 | 10.1 | best values for relative titer and cell-specific productivity | very high cell-specific productivities, but very low cell density | – | – | – | – | – |
| CC(=O)N[C@@H](C)C(=O)N[C@@H](CCC(N)=O)C(=O)O [Acetyl A-Q/acetyl-A-Q] (Ac-Ala-Gln-OH) | – | – | – | – | – | – | – | – | – | – | – | – | 15.0 | 8.2 | 145% | 18% | 0.2 |
